How the values were obtained:
[1] = Solubility of the peptide; type: physicochemical
From the text: The resulting peptide has the following physical and chemical properties and characteristics: […]

[2] = test system: caryocytes in femoral marrow; assay: Reconstitution of caryocyte numbers in femoral marrow after 4 Gy; type: in vivo, mice; conditions: 10 μg/kg IP 2 days before 4 Gy
Method: The reconstitution of caryocyte numbers and that of hemopoietic progenitors was studied in femoral marrow after irradiation in the dose of 4 Gy and the peptide injection. The test was performed in 12 groups of mice, 6 animals each, and lasted 14 days. Intraperitoneal injections of the peptide in a dose of 10 μg/kg were made 1 day and 2 days before the irradiation.

(CBA×C57 B1) F1 mice = assay: Chronic lymphocyte-induced GVHR in irradiated (6 Gy) mice; type: in vivo; conditions: for Survival (%) / Survival (mice): after 60 days; for Survival (%): control 60; for Survival (mice): of 10 mice, control 6
Method: Recipient (CBA×C57 B1) F1 mice were irradiated with the dose of 6 Gy. Two hours after irradiation they were intravenously injected with 6 mln lymphocytes from mesenteric lymph nodes of C57B1 donor mice. […] The peptide was injected intraperitoneally once daily, 5 days a week, until day 21, for a total of 14 injections.
Indicators of the degree of GVHR development were animal weight and lymphocyte and leukocyte count. The animals were weighed every 3 days. On day 14 and day 28 lymphocyte and leukocyte count were determined using peripheral blood.

[3] = test system: mixed lymphocyte culture (MLC); assay: Mixed lymphocyte culture (MLC) proliferation; type: cell-based, mice
Method: The influence of the peptides of the invention on the proliferation of a mixed lymphocyte culture (MLC) was studied. The MLC experimental system is an in vitro analogue of the GVHD reaction.
Donor spleen cells from C57B1 mice ([…]) were injected into recipient (CBA×C57B1) F1 mice. Bone marrow was removed from the recipient and cultured for 4 days. The cultured cells were separated into 3 test groups, one group was treated with iDD, one with the L-peptide H-Ile-Glu-Trp-OH and one was a control. Each test peptide was added in various concentrations. Each determination was done in triplicate. ^3H-thymidine was added to each culture for 16 hours and the index of the proliferation of the cells was calculated.

[4] = test system: CFU-S population of bone marrow; assay: Spleen colony and CFU-S count after peptide injection to marrow donor mice; type: in vivo; conditions: for Colony count: control 10,7 ± 0,5; for CFU-S count: control 2436
Method: The effect of peptides of the present invention on a population of hemopoietic progenitors was studied by testing for colony formation by hemopoietic stem cells in spleens of irradiated mice.
The peptide was injected intraperitoneally (IP) at different concentrations to intact mice. After two hours, one day, or two days the animals were killed. The bone marrow from the animals was taken to prepare a suspension of marrow cells, which was injected to lethally irradiated (8.5 Gy) mice. Along with the bone marrow, the recipients received injections of thymocytes. After 9 days, spleen colonies were counted. […]
The treatment was performed as described in Example 4(c).

[5] = test system: Splenic cells of the mice; assay: Concavalin A-stimulated proliferation of splenic cells (3H-thymidine); type: cell-based, Balb/c mice; conditions: 48 h, control 61467
Method: The biological effect of the D-iGlu-D-Trp (iDD) was studied in Balb/c mice. […] The preparation under study was added at the beginning of the culture. Concavalin A was used as a mitogen, in a final concentration of 2 μg per well. The plates were incubated at 37° C. and in 5% CO2 for 48 h. 3H-thymidine was incorporated into the cells in the amount of […], 24 h prior to the end of the culture. Proliferation of the cells was measured with the use of a scintillation c-counter and expressed in counts per minute (CPM).

[6] = Peptide IP to donor mice 2 hours before
[7] = Peptide IP to donor mice 1 day before
[8] = Peptide IP to donor mice 2 days before

With H-D-iGlu-D-Trp-OH [iDD] the Solubility in alcohol ([1]; alcohol) was “moderately soluble”, the Solubility in chloroform ([1]; chloroform) was “insoluble” and the Solubility in water ([1]; water) was “readily soluble”. For the same substance, the Caryocyte count ([2]; 4 days after irradiation, 4 Gy alone 9,0 ± 0,3) was 12,8 ± 0,9 × 10^6, the Caryocyte count ([2]; 7 days after irradiation, 4 Gy alone 10,6 ± 0,8) was 21,3 ± 2,1 × 10^6 and the Caryocyte count ([2]; 11 days after irradiation, 4 Gy alone 17,0 ± 0,6) was 17,3 ± 1,0 × 10^6. For the same substance, the Caryocyte count ([2]; 14 days after irradiation, 4 Gy alone 17,0 ± 1,2) was 20,5 ± 0,5 × 10^6, the “Animal Weight” value ((CBA×C57 B1) F1 mice; Dose 10 μ/kg, Day 5, initial average 18.3 g) was 18.0 grams and the “Animal Weight” value ((CBA×C57 B1) F1 mice; Dose 10 μ/kg, Day 8) was 18.3 grams. The “Animal Weight” value ((CBA×C57 B1) F1 mice; Dose 10 μ/kg, Day 12) was 18.3 grams, the “Animal Weight” value ((CBA×C57 B1) F1 mice; Dose 10 μ/kg, Day 14) was 17.8 grams and the “Animal Weight” value ((CBA×C57 B1) F1 mice; Dose 10 μ/kg, Day 19) was 17.6 grams. The “Animal Weight” value ((CBA×C57 B1) F1 mice; Dose 10 μ/kg, Day 21) was 17.8 grams, the “Animal Weight” value ((CBA×C57 B1) F1 mice; Dose 10 μ/kg, Day 23) was 18.6 grams and the “Animal Weight” value ((CBA×C57 B1) F1 mice; Dose 10 μ/kg, Day 26) was 18.9 grams. For the same substance, the “Animal Weight” value ((CBA×C57 B1) F1 mice; Dose 10 μ/kg, Day 30) was 18.9 grams, the “Animal Weight” value ((CBA×C57 B1) F1 mice; Dose 10 μ/kg, Day 33) was 18.9 grams and the “Animal Weight” value ((CBA×C57 B1) F1 mice; Dose 10 μ/kg, Day 40) was 19.2 grams. The “Animal Weight” value ((CBA×C57 B1) F1 mice; Dose 10 μ/kg, Day 47) was 19.9 grams, the “Animal Weight” value ((CBA×C57 B1) F1 mice; Dose 10 μ/kg, Day 54) was 20.0 grams and the “Animal Weight” value ((CBA×C57 B1) F1 mice; Dose 10 μ/kg, Day 60) was 20.0 grams. The “Animal Weight” value ((CBA×C57 B1) F1 mice; Dose 100 μ/kg, Day 5, initial average 18.3 g) was 18.6 grams, the “Animal Weight” value ((CBA×C57 B1) F1 mice; Dose 100 μ/kg, Day 8) was 18.5 grams and the “Animal Weight” value ((CBA×C57 B1) F1 mice; Dose 100 μ/kg, Day 12) was 18.6 grams. The “Animal Weight” value ((CBA×C57 B1) F1 mice; Dose 100 μ/kg, Day 14) was 19.0 grams, the “Animal Weight” value ((CBA×C57 B1) F1 mice; Dose 100 μ/kg, Day 19) was 19.0 grams and the “Animal Weight” value ((CBA×C57 B1) F1 mice; Dose 100 μ/kg, Day 21) was 19.3 grams. For the same substance, the “Animal Weight” value ((CBA×C57 B1) F1 mice; Dose 100 μ/kg, Day 23) was 19.6 grams, the “Animal Weight” value ((CBA×C57 B1) F1 mice; Dose 100 μ/kg, Day 26) was 19.6 grams and the “Animal Weight” value ((CBA×C57 B1) F1 mice; Dose 100 μ/kg, Day 30) was 19.7 grams. For the same substance, the “Animal Weight” value ((CBA×C57 B1) F1 mice; Dose 100 μ/kg, Day 33) was 19.7 grams, the “Animal Weight” value ((CBA×C57 B1) F1 mice; Dose 100 μ/kg, Day 40) was 20.0 grams and the “Animal Weight” value ((CBA×C57 B1) F1 mice; Dose 100 μ/kg, Day 47) was 20.3 grams. For the same substance, the “Animal Weight” value ((CBA×C57 B1) F1 mice; Dose 100 μ/kg, Day 54) was 20.4 grams, the “Animal Weight” value ((CBA×C57 B1) F1 mice; Dose 100 μ/kg, Day 60) was 20.4 grams and the “Animal Weight” value ((CBA×C57 B1) F1 mice; Dose 1000 μ/kg, Day 5, initial average 18.3 g) was 19.1 grams. The “Animal Weight” value ((CBA×C57 B1) F1 mice; Dose 1000 μ/kg, Day 8) was 19.1 grams, the “Animal Weight” value ((CBA×C57 B1) F1 mice; Dose 1000 μ/kg, Day 12) was 18.9 grams and the “Animal Weight” value ((CBA×C57 B1) F1 mice; Dose 1000 μ/kg, Day 14) was 18.9 grams. For the same substance, the “Animal Weight” value ((CBA×C57 B1) F1 mice; Dose 1000 μ/kg, Day 19) was 19.4 grams, the “Animal Weight” value ((CBA×C57 B1) F1 mice; Dose 1000 μ/kg, Day 21) was 19.6 grams and the “Animal Weight” value ((CBA×C57 B1) F1 mice; Dose 1000 μ/kg, Day 23) was 19.8 grams. The “Animal Weight” value ((CBA×C57 B1) F1 mice; Dose 1000 μ/kg, Day 26) was 19.8 grams, the “Animal Weight” value ((CBA×C57 B1) F1 mice; Dose 1000 μ/kg, Day 30) was 20.0 grams and the “Animal Weight” value ((CBA×C57 B1) F1 mice; Dose 1000 μ/kg, Day 33) was 20.0 grams. For the same substance, the “Animal Weight” value ((CBA×C57 B1) F1 mice; Dose 1000 μ/kg, Day 40) was 20.2 grams, the “Animal Weight” value ((CBA×C57 B1) F1 mice; Dose 1000 μ/kg, Day 47) was 20.5 grams and the “Animal Weight” value ((CBA×C57 B1) F1 mice; Dose 1000 μ/kg, Day 54) was 20.1 grams. The “Animal Weight” value ((CBA×C57 B1) F1 mice; Dose 1000 μ/kg, Day 60) was 20.4 grams, the “Survival (%)” value ((CBA×C57 B1) F1 mice; Dose 10 μ/kg) was 90% and the “Survival (mice)” value ((CBA×C57 B1) F1 mice; Dose 10 μ/kg) was 9. The “Survival (%)” value ((CBA×C57 B1) F1 mice; Dose 100 μ/kg) was 90%, the “Survival (mice)” value ((CBA×C57 B1) F1 mice; Dose 100 μ/kg) was 9 and the “Survival (%)” value ((CBA×C57 B1) F1 mice; Dose 1000 μ/kg) was 80%. For the same substance, the “Survival (mice)” value ((CBA×C57 B1) F1 mice; Dose 1000 μ/kg) was 8, the “Lymphocyte and leukocyte counts versus control mice” value ((CBA×C57 B1) F1 mice; peripheral blood, day 14 and day 28, Table 20 not given) was “significantly higher” and the “Effect on MLC when H-Ile-Glu-Trp-OH and iDD added in equal concentrations” value ([3]; both peptides in equal concentrations) was “the effect of iDD was predominant”. For the same substance, the “Depression of the proliferation MLC” value ([3]; concentrations of 10 and 20 μg/ml, FIG. 1) was roughly 50%, the Colony count [4, 6] was 6,6 ± 0,5 and the CFU-S count [4, 6] was 917. The Colony count [4, 7] was 4,7 ± 0,6, the CFU-S count [4, 7] was 653 and the Colony count ([4]; Peptide IP to donor mice 2 days before + thymocytes) was 9,4 ± 0,9. The Colony count [4, 8] was 6,0 ± 0,9, the CFU-S count [4, 8] was 1098 and the “CPMI (proliferation, 3H-thymidine)” value ([5]; Preparation dose 1 μcg/ml) was 68594 CPM. The “CPMI (proliferation, 3H-thymidine)” value ([5]; Preparation dose 5 μcg/ml) was 63428 CPM, the “CPMI (proliferation, 3H-thymidine)” value ([5]; Preparation dose 10 μcg/ml) was 20043 CPM and the “CPMI (proliferation, 3H-thymidine)” value ([5]; Preparation dose 20 μcg/ml) was 13222 CPM.

From patent US6410515B1, “Peptide, a method for its preparation and a pharmaceutical composition containing the peptide” (Immunotech Developments Inc., priority 1995, dated 2002)
